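Compound exposure: 48 hours, 5 concentrations, 96-well plates. Here, GI50 denotes the concentration required for 50% inhibition of growth.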 Active and inactive are the calls of the source. Rule as the data show it: active = GI50 up to about 1.1 µM and inactive = higher.
Experiments:
Assay in all cases: NCI anticancer screen, dose series, 48 h
[1] = test system: SF-539
[2] = test system: SK-OV-3
[3] = test system: SK-MEL-2
[4] = test system: EKVX
[5] = test system: U-251
[6] = test system: OVCAR-8
[7] = test system: TK-10
[8] = test system: NCI-H23
[9] = test system: HCT-116
[10] = test system: SNB-19
[11] = test system: RPMI-8226
[12] = test system: KM12
[13] = test system: LOX IMVI
[14] = test system: ACHN
[15] = test system: 786-0
[16] = test system: SK-MEL-5
[17] = test system: SK-MEL-28
[18] = test system: HCT-15
[19] = test system: SR

Structure (SMILES)	GI50 [1]	GI50 [2]	GI50 [3]	GI50 [4]	GI50 [5]	GI50 [6]	GI50 [7]	GI50 [8]	GI50 [9]	GI50 [10]	GI50 [11]	GI50 [12]	GI50 [13]	GI50 [14]	GI50 [15]	GI50 [16]	GI50 [17]	GI50 [18] [µM]	GI50 [19]
CC(C)(C)C(=O)C1CC(=O)c2ccccc2C1=O (configuration not stated)	34.3 µM (inactive)	27.1 µM (inactive)	10.6 µM (inactive)	32.4 µM (inactive)	34 µM (inactive)	37 µM (inactive)	34.1 µM (inactive)	20.7 µM (inactive)	21.4 µM (inactive)	24 µM (inactive)	23 µM (inactive)	31.8 µM (inactive)	40.8 µM (inactive)	44.7 µM (inactive)	32.6 µM (inactive)	32.4 µM (inactive)	20.5 µM (inactive)	–	–
CC1=C(C(=O)Nc2cccc(Cl)c2)C(c2ccccc2O)C(C(=O)Nc2cccc(Cl)c2)=C(C)N1	16.7 µM (inactive)	24.3 µM (inactive)	16.1 µM (inactive)	22.4 µM (inactive)	19.9 µM (inactive)	25.2 µM (inactive)	18.9 µM (inactive)	17.3 µM (inactive)	–	26.1 µM (inactive)	20.7 µM (inactive)	16.8 µM (inactive)	21.8 µM (inactive)	23.7 µM (inactive)	15.7 µM (inactive)	17.4 µM (inactive)	17.1 µM (inactive)	–	–
C#CCC(O)c1ccccc1C(O)CC#C (configuration not stated)	–	39.7 µM (inactive)	62.1 µM (inactive)	> 100 µM (inactive)	–	> 100 µM (inactive)	97.5 µM (inactive)	> 100 µM (inactive)	–	> 100 µM (inactive)	> 100 µM (inactive)	> 100 µM (inactive)	> 100 µM (inactive)	75.5 µM (inactive)	> 100 µM (inactive)	> 100 µM (inactive)	> 100 µM (inactive)	> 100	–
Cc1cc(OCc2nnc3sc(NC(=O)c4ccccc4)nn23)ccc1Cl	> 100 µM (inactive)	59.6 µM (inactive)	28.8 µM (inactive)	31.1 µM (inactive)	33.3 µM (inactive)	20.7 µM (inactive)	62.4 µM (inactive)	30.7 µM (inactive)	28.7 µM (inactive)	33.9 µM (inactive)	26.7 µM (inactive)	21.5 µM (inactive)	30.1 µM (inactive)	20.5 µM (inactive)	33.1 µM (inactive)	32.4 µM (inactive)	67.5 µM (inactive)	38.7	–
O=C1C(=O)N(c2ccc(Cl)cc2)C(=O)C(=O)C1c1nc2ccccc2s1	74.3 µM (inactive)	> 100 µM (inactive)	> 100 µM (inactive)	> 100 µM (inactive)	> 100 µM (inactive)	> 100 µM (inactive)	> 100 µM (inactive)	> 100 µM (inactive)	> 100 µM (inactive)	> 100 µM (inactive)	> 100 µM (inactive)	> 100 µM (inactive)	> 100 µM (inactive)	89.3 µM (inactive)	> 100 µM (inactive)	> 100 µM (inactive)	> 100 µM (inactive)	> 100	–
O=C(/C=C/c1ccccc1)CC1OC(=O)c2ccccc21 (configuration not stated)	36.1 µM (inactive)	> 100 µM (inactive)	46.3 µM (inactive)	> 100 µM (inactive)	> 100 µM (inactive)	> 100 µM (inactive)	> 100 µM (inactive)	47.1 µM (inactive)	31.2 µM (inactive)	42.1 µM (inactive)	24.2 µM (inactive)	40.5 µM (inactive)	49.7 µM (inactive)	> 100 µM (inactive)	> 100 µM (inactive)	> 100 µM (inactive)	> 100 µM (inactive)	> 100	–
N#CC(C(=O)C(N)=O)c1ccccc1Cl (configuration not stated)	> 100 µM (inactive)	> 100 µM (inactive)	> 100 µM (inactive)	> 100 µM (inactive)	> 100 µM (inactive)	> 100 µM (inactive)	> 100 µM (inactive)	> 100 µM (inactive)	> 100 µM (inactive)	> 100 µM (inactive)	> 100 µM (inactive)	> 100 µM (inactive)	> 100 µM (inactive)	> 100 µM (inactive)	> 100 µM (inactive)	> 100 µM (inactive)	> 100 µM (inactive)	> 100	–
COc1cc(-c2c(C)c(C)nc(OC)c2C#N)cc(OC)c1OC	> 100 µM (inactive)	> 100 µM (inactive)	> 100 µM (inactive)	> 100 µM (inactive)	> 100 µM (inactive)	> 100 µM (inactive)	> 100 µM (inactive)	> 100 µM (inactive)	> 100 µM (inactive)	> 100 µM (inactive)	37.4 µM (inactive)	> 100 µM (inactive)	–	> 100 µM (inactive)	> 100 µM (inactive)	> 100 µM (inactive)	> 100 µM (inactive)	> 100	–
CC1=C(C(=O)O)N2C(=O)[C@@H](NC(=O)C(c3ccccc3)N3CSC(=S)N(C(C)C)C3)C2SC1 (some centres not stated)	> 100 µM (inactive)	> 100 µM (inactive)	> 100 µM (inactive)	> 100 µM (inactive)	> 100 µM (inactive)	> 100 µM (inactive)	> 100 µM (inactive)	> 100 µM (inactive)	> 100 µM (inactive)	> 100 µM (inactive)	> 100 µM (inactive)	> 100 µM (inactive)	> 100 µM (inactive)	> 100 µM (inactive)	> 100 µM (inactive)	> 100 µM (inactive)	59 µM (inactive)	> 100	–
Cc1cc(N(CCC#N)CCC#N)ccc1/C=C1N=C(/C=C\c2ccccc2)N(NC(=O)CC(=O)Nc2ccccc2Cl)C\1=O	> 100 µM (inactive)	> 100 µM (inactive)	> 100 µM (inactive)	–	> 100 µM (inactive)	> 100 µM (inactive)	> 100 µM (inactive)	> 100 µM (inactive)	> 100 µM (inactive)	> 100 µM (inactive)	> 100 µM (inactive)	> 100 µM (inactive)	> 100 µM (inactive)	> 100 µM (inactive)	> 100 µM (inactive)	> 100 µM (inactive)	> 100 µM (inactive)	> 100	–
COCCN1C2=CCCCC2=Nc2c1nc(N)[nH]c2=O	> 100 µM (inactive)	> 100 µM (inactive)	–	> 100 µM (inactive)	> 100 µM (inactive)	> 100 µM (inactive)	> 100 µM (inactive)	> 100 µM (inactive)	> 100 µM (inactive)	> 100 µM (inactive)	> 100 µM (inactive)	> 100 µM (inactive)	> 100 µM (inactive)	> 100 µM (inactive)	> 100 µM (inactive)	> 100 µM (inactive)	> 100 µM (inactive)	> 100	> 100 µM (inactive)
CCCC1N2CCCCC2[C@@H]2c3[nH]c4ccccc4c3CCN12 (some centres not stated)	> 100 µM (inactive)	> 100 µM (inactive)	> 100 µM (inactive)	> 100 µM (inactive)	> 100 µM (inactive)	> 100 µM (inactive)	–	> 100 µM (inactive)	> 100 µM (inactive)	> 100 µM (inactive)	> 100 µM (inactive)	–	–	> 100 µM (inactive)	> 100 µM (inactive)	> 100 µM (inactive)	> 100 µM (inactive)	> 100	–
N#CC(C#N)c1ccc(C(=O)N2CCC[C@H]2CO)cc1	> 100 µM (inactive)	> 100 µM (inactive)	> 100 µM (inactive)	> 100 µM (inactive)	> 100 µM (inactive)	> 100 µM (inactive)	> 100 µM (inactive)	> 100 µM (inactive)	–	> 100 µM (inactive)	> 100 µM (inactive)	> 100 µM (inactive)	> 100 µM (inactive)	> 100 µM (inactive)	> 100 µM (inactive)	0.471 µM (active)	> 100 µM (inactive)	> 100	–
COc1cc2c(cc1OCCCOS(C)(=O)=O)N=C[C@@H]1CCCN1C2=O	> 100 µM (inactive)	> 100 µM (inactive)	> 100 µM (inactive)	> 100 µM (inactive)	> 100 µM (inactive)	> 100 µM (inactive)	> 100 µM (inactive)	> 100 µM (inactive)	> 100 µM (inactive)	> 100 µM (inactive)	> 100 µM (inactive)	> 100 µM (inactive)	> 100 µM (inactive)	> 100 µM (inactive)	> 100 µM (inactive)	> 100 µM (inactive)	> 100 µM (inactive)	> 100	–
Cc1cc(C)nc(NS(=O)(=O)c2ccc(Nc3c4ccccc4nc4c(C(=O)Nc5ccc(S(=O)(=O)N=C(N)N)cc5)cccc34)cc2)n1	> 100 µM (inactive)	> 100 µM (inactive)	> 100 µM (inactive)	> 100 µM (inactive)	98.9 µM (inactive)	> 100 µM (inactive)	> 100 µM (inactive)	> 100 µM (inactive)	–	35.7 µM (inactive)	> 100 µM (inactive)	> 100 µM (inactive)	> 100 µM (inactive)	> 100 µM (inactive)	> 100 µM (inactive)	> 100 µM (inactive)	67.3 µM (inactive)	> 100	–
CC(=O)OC1CC2(c3ccccc3)C(=O)c3ccccc3N2O1 (configuration not stated)	> 100 µM (inactive)	> 100 µM (inactive)	–	78.3 µM (inactive)	> 100 µM (inactive)	> 100 µM (inactive)	–	> 100 µM (inactive)	> 100 µM (inactive)	> 100 µM (inactive)	> 100 µM (inactive)	–	–	> 100 µM (inactive)	> 100 µM (inactive)	> 100 µM (inactive)	> 100 µM (inactive)	> 100	> 100 µM (inactive)
